Test results: ChEMBL document CHEMBL1201862, “PubChem BioAssay data set” (2004)
Active and inactive are the calls of the source.

Experiments:
[1] = inhibition of ADAM10 peptide cleavage – biochemical, FRET peptide substrate, recombinant human ADAM10, selectivity assay for ADAM17 exosite inhibitor project, dose response (AID 743259);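 note: ADAM10 enzyme cleaving a FRET peptide substrate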
[2] = biological target: T1, Disintegrin and metalloproteinase domain-containing protein 17 (Homo sapiens, UniProt P78536); experiment: exosite inhibitors of ADAM17, dose response, biochemical (AID 743260)
[3] = non-specific 3'UTR reporter inhibition in Clone20-Shn3RL – cell-based, Renilla luciferase, cherry-picked, counter-screen for Shn3 inhibitor project, dose response (AID 624133); assay type: functional
[4] = loss of viability in HepG2 cells – cell-based, CellTiter-Glo, cherry-picked, cytotoxicity control for Shn3 inhibitor project, dose response (AID 624134); assay type: functional
[5] = biological target: COUP transcription factor 2 (Homo sapiens, UniProt P24468); experiment: Luminescence-based cell-based high throughput dose response assay to identify inhibitors of COUP-TFII (NR2F2).; assay type: functional;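 note: HEK293 cells transiently cotransfected with COUP-TFII expression vector and reporter; luciferase reporter luminescence driven by COUP-TFII from the pX2-168 reporter plasmid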
[6] = reduction of Shn3 3'UTR-driven luciferase in osteoblasts – cell-based, Clone20 osteoblasts, firefly luciferase, cherry-picked, dose response (AID 624132); assay type: functional;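 note: firefly luciferase luminescence from reporter carrying the Shn3 3'UTR in osteoblasts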
[7] = tested on: INS1; experiment: INS-1E survival protection against cytokine death – cell-based, luminescence, retest, dose response (AID 449756); assay type: functional; conditions: Rattus norvegicus;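 note: cell death triggered by IL-1 beta plus TNF-alpha plus IFN-gamma mixture; protective hits raise ATP signal compared with cytokine alone wells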
[8] = biological target: Induced myeloid leukemia cell differentiation protein Mcl-1 (Homo sapiens, UniProt Q07820); assay type: functional
[9] = biological target: T1, Disintegrin and metalloproteinase domain-containing protein 17; experiment: inhibition of ADAM17 substrate cleavage – biochemical, quenched FRET substrate, counter-screen for ADAM10 exosite inhibitor project, dose response (AID 743253)
[10] = potency of ADAM10 substrate cleavage blockers – biochemical, QFRET, dose response (AID 743254);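 note: ADAM10 enzyme with the DM2 quenched FRET peptide as substrate; EDANS fluorescence gain as the protease cuts the substrate; inhibitor potency against ADAM10 proteolytic activity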
[11] = cells; assay type: functional, cell-based; conditions: HEK-CNG
[12] = viability loss in MITF-independent A375 cells – cell-based, CellTiter-Glo luminescence, dry powder, set 2, counter-screen for MITF inhibitor project, dose response (AID 624489); assay type: functional; conditions: A-375;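 note: actives are compounds lowering A375 viability meaning general cytotoxicity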
[13] = viability of HCT116 lacking mutant beta-catenin – cell-based, human colon tumor, dose response (AID 1045); assay type: functional;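 note: HCT116 colon tumor cells with beta catenin knocked out; cells exposed to compound for 60 hours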
[14] = biological target: T2, Microphthalmia-associated transcription factor (Homo sapiens, UniProt O75030); experiment: reducers of TRPM1 reporter luminescence, concentration series – cell-based, SK-MEL-5, cherry-picked, set 3, MITF inhibitor project, dose response (AID 493073); assay type: functional;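 note: SK-MEL-5 melanoma cells with luciferase driven by the MITF target TRPM1 promoter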
T2 sequence (O75030 whole entry): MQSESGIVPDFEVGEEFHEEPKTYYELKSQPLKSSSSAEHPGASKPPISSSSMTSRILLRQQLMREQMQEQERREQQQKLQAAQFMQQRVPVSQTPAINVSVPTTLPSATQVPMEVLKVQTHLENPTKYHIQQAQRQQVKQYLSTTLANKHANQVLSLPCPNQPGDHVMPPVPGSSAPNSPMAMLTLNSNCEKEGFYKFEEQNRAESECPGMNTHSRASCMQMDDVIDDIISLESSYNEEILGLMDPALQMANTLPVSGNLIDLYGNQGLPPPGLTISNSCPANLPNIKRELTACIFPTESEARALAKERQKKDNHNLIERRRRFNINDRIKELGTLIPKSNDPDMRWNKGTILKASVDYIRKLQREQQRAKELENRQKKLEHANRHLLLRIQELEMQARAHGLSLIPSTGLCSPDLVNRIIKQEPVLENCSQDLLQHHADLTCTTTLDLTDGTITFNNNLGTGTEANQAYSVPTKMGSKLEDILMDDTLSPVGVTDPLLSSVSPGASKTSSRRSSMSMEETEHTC

[15] = cytotoxicity in MITF-independent A375 cells – cell-based, CellTiter-Glo luminescence, dry powder, set 4, counter-screen for MITF inhibitor project, dose response (AID 624364); assay type: functional; conditions: A-375;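 note: A375 melanoma cells are MITF independent so this is a counter screen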
[16] = viability of PTEN-deleted HCT116 cells – cell-based, HCT116 PTEN knockout, dose response (AID 1047); assay type: functional;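 note: HCT116 colon tumor cells with PTEN knocked out; cells exposed to compound for 60 hours before readout; potency for loss of cell viability measured by luminescence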
[17] = cells; assay type: functional, cell-based
[18] = alpha-synuclein stem-loop luciferase translation blockers – H4 neuroglioma cells, luminescence, confirmation (AID 1988); assay type: functional, cell-based
[19] = biological target: T3, Nuclear receptor subfamily 0 group B member 1 (Homo sapiens, UniProt P51843); assay type: functional, cell-based;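 note: HEK293T cells transfected with SF-1 and DAX-1 plus StAR promoter luciferase reporter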
T3 sequence (P51843 whole entry): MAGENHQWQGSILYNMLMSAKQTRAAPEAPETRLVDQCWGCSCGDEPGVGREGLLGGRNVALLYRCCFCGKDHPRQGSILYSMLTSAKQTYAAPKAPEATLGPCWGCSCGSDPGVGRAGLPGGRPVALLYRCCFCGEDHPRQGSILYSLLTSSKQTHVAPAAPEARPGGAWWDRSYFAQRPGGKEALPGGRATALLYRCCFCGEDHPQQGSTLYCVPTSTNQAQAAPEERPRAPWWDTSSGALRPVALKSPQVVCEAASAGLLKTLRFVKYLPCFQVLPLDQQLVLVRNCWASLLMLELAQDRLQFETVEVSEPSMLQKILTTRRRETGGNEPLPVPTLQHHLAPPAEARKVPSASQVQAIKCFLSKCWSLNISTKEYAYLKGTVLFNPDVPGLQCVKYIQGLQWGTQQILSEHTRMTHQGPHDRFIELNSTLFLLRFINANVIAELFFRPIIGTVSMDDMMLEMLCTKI

[20] = Luminescence Cell-Based Dose Response HTS to Identify Inhibitors of 5'UTR Stem-Loop Driven Prion Protein mRNA Translation in H4 Neuroglioblastoma Cells. [Related pubchem assays: 1827 (Project Summary), 1813 (Primary HTS)]; assay type: functional
[21] = luciferase reporter signal suppression in cells – H4 neuroglioma cells, luminescence, dose response (AID 1990); assay type: functional, cell-based
[22] = cells
[23] = biological target: Major prion protein (Homo sapiens, UniProt P04156); assay type: functional, cell-based
[24] = cells; assay type: functional, cell-based; remark: listed apart in the source
[25] = biological target: T4, Trace amine-associated receptor 1 (Homo sapiens, UniProt Q96RJ0); experiment: Fluorescence-based cell-based high throughput dose response assay to identify agonists of the human trace amine associated receptor 1 (TAAR1).; assay type: functional
T4 sequence (Q96RJ0 whole entry): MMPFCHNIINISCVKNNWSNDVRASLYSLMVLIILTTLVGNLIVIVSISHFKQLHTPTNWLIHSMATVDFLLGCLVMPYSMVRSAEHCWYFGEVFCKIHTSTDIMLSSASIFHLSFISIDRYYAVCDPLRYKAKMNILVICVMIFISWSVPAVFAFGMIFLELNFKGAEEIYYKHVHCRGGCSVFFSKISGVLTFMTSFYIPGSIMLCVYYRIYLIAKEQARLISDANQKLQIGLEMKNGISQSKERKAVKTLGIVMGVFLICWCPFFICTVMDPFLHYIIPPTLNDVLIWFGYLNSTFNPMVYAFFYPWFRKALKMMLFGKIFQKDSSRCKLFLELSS

[26] = biological target: T4, Trace amine-associated receptor 1; experiment: Counterscreen for agonists of the human trace amine associated receptor 1 (hTAAR1): Fluorescence-based cell-based high throughput dose response assay to identify hTAAR1 agonist that also desensitize TAAR1 receptor response.; assay type: functional
[27] = cells; assay type: functional, cell-based; remark: listed apart in the source
[28] = biological target: Paired box protein Pax-8 (Homo sapiens, UniProt Q06710); experiment: PAX8 transcriptional activity inhibition in RMG-I – RMG-I cells, luciferase, cherry-pick, dose response (AID 687027); assay type: functional, cell-based;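 note: luciferase reporter driven by Pax8 target thyroperoxidase promoter measured by SteadyGlo luminescence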
[29] = biological target: Hepatocyte nuclear factor 4-alpha (Homo sapiens, UniProt P41235); assay type: functional, cell-based;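 note: biochemical luminescence-based dose-response counterscreen measuring inhibition of HNF4 dimerization, run alongside a screen for blockers of ABHD5–perilipin-5 interaction; split luciferase complementation of HNF4 fusion proteins in cell lysate measuring dimerization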
[30] = reduced cellular PGC1a acetyl-lysine signal – cell-based, cherry-picked samples, dose response (AID 720514); assay type: functional;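 note: potency may reflect raised or lowered acetylation signal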
[31] = biological target: Galanin receptor type 3 (Homo sapiens, UniProt O60755); experiment: Fluorescence-based cell-based primary high throughput dose response assay to identify antagonists of the Galanin Receptor 3 (GalR3).; assay type: functional

SMILES: c1ccc(-n2c(SCc3cccc4ccccc34)nnc2-c2ccccn2)cc1
- IC50 [1]: 24.1 µM (inactive)
- IC50 [2]: > 69.4 µM (inactive)

SMILES: Cc1ccc(C(=O)NC2CCCc3c2cnn3-c2ccc(F)cc2F)cn1 (stereo unspecified)
- AC50 [3]: 6.81 µM (active)
- AC50 [4]: 2.34 µM (active)
- IC50 [5]: 3.66 µM (active)
- AC50 [6]: 0.921 µM (active)
- AC50 [7]: 4.93 µM (active)

SMILES: CN(C)c1ccc(NC(=O)c2cn(-c3ccccc3)nc2-c2cccs2)cc1
- IC50 [8]: 2.48 µM (not active)
- IC50 [9]: > 69.5 µM (inactive)
- IC50 [10]: > 69.5 µM (inactive)

SMILES: Fc1ccc(N=C(S)NNc2ncc(C(F)(F)F)cc2Cl)c(F)c1
- EC50 [11]: > 29.9 µM (inactive)

SMILES: CCN1c2ccccc2NC2N=C(OC)C(c3ccccc3)C21 (stereo unspecified)
- AC50 [12]: 29.7 µM (active)
- EC50 [13]: 7.49 µM (active)
- AC50 [14]: 7.51 µM (active)
- AC50 [7]: 1.26 µM (active)
- AC50 [15]: 50.4 µM (active)
- EC50 [16]: 8.12 µM (active)

SMILES: CN1CCN(c2ccc(NC(=O)c3ccc4ccccc4c3)cc2)CC1
- IC50 [17]: > 67.6 µM (inactive)
- EC50 [18]: 9.94 µM (inconclusive)
- IC50 [19]: > 67.6 µM (inactive)
- EC50 [20]: 8.96 µM (inconclusive)
- EC50 [21]: 7.8 µM (inconclusive)

SMILES: COc1ccc(NC(=O)NNC(=O)COc2ccc3cc(Br)ccc3c2)cc1OC
- IC50 [22]: > 138 µM (inactive)
- IC50 [23]: 5.33 µM (active)

SMILES: Cn1cccc1CNCCc1ccc(F)cc1
- EC50 [24]: > 29.9 µM (inactive)
- EC50 [25]: 6.31 µM (active)
- IC50 [26]: 20 µM (inactive)
- IC50 [27]: > 29.9 µM (inactive)

SMILES: C#CCN(C[C@@H]1[C@@H](OC(=O)NCC2CCCCC2)[C@@H](OC(=O)NCC2CCCCC2)Cn2c(=O)ccc(=O)n21)S(=O)(=O)c1ccc(C)cc1
- AC50 [3]: 3.96 µM (active)
- AC50 [28]: 3.03 µM (active)
- AC50 [4]: 6.53 µM (active)
- IC50 [29]: 29.3 µM (inactive)
- AC50 [6]: 2.49 µM (active)
- AC50 [30]: 1.65 µM (active)

SMILES: CCOc1nc(C#N)nc(N2CCCCC2)n1
- EC50 [11]: > 29.9 µM (inactive)
- IC50 [31]: 1.09 µM (active)
